Assay results as given in patent US20020026053A1, “Novel 3-(substituted) -2- indolinones compounds and use thereof as inhibitors of protein kinase activity” (priority 1997, published 2002).
Values joined by “and” are separate entries in the source; they are usually repeats but may differ in a detail not shown here. Equal entries are not always repeated.

system: FLK-1 receptor; assay: FLK-1 Assay (cellular/catalytic ELISA, VEGF-stimulated phosphotyrosine); format: cell-based; parameters: concentration or dose not given beside the values; conditions: not given
In short: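 Receptor phosphotyrosine ELISA: Flk-1-expressing NIH3T3 C7#3 cells, starved overnight in 0.1% FBS medium, received compound (1:200 final dilution, 0.5% DMSO) for 2 h at 37 °C, then VEGF. Anti-FLK-1-captured receptor was probed with anti-phosphotyrosine UB40 and peroxidase/ABTS read-out, relative to cells without compound.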

SMILES | Flk Kinase % Inhibition (P.110)
Cc1c(Br)cc(Br)c2c1C(=Cc1cccc(Br)c1)C(=O)N2 [10723/H10] | −13.4%
Cc1cc(C=C2C(=O)Nc3c(Br)cc(Br)c(C)c32)[nH]n1 [10725/H05] | 21.6%
Cc1c(Br)cc(Br)c2c1C(=Cc1c(O)cc(O)cc1O)C(=O)N2 [10722/H03] | 2.1%
Cc1c(Br)cc(Br)c2c1C(=Cc1ncc[nH]1)C(=O)N2 [10720/H11] | −8.8%
Cc1c(Br)cc(Br)c2c1C(=Cc1ccc(N(C)C)c3ccccc13)C(=O)N2 [10724/H02] | 11.5%
Cc1c(Br)cc(Br)c2c1C(=Cc1cc(Br)c(O)c(C(C)(C)C)c1)C(=O)N2 [10721/H10] | 10.2%
COC(=O)Cc1c(Cl)[nH]c(C=C2C(=O)Nc3c(Br)cc(Br)c(C)c32)c1C(=O)OC [10725/H09] | −6.1%
Cc1c(Br)cc(Br)c2c1C(=Cc1cc(O)c(O)c(Br)c1)C(=O)N2 [10723/H04] | −20.2%
Cc1c(Br)cc(Br)c2c1C(=Cc1ccc(O)cc1O)C(=O)N2 [10723/H08] | −4.2%
Cc1c(Br)cc(Br)c2c1C(=Cc1nc3ccccc3n1C)C(=O)N2 [10721/H02] | 5.5%
Cc1c(Br)cc(Br)c2c1C(=Cc1sc3scc(C)c3c1C)C(=O)N2 [10724/H11] | 8.6%
Cc1c(Br)cc(Br)c2c1C(=Cc1ccccc1O)C(=O)N2 [10720/H05] | −12.3%
Cc1c(Br)cc(Br)c2c1C(=Cc1ccc(O)c(C(C)(C)C)c1)C(=O)N2 [10721/H09] | 7.0%
COc1ccc(C=C2C(=O)Nc3c(Br)cc(Br)c(C)c32)cc1OC [10720/H04] | −5.8%
Cc1cc(C=C2C(=O)Nc3c(Br)cc(Br)c(C)c32)sc1C [10721/H04] | 0.7%
Cc1c(Br)cc(Br)c2c1C(=Cc1ccc(F)cc1F)C(=O)N2 [10722/H06] | 18.9%
Cc1cc(C=C2C(=O)Nc3c(Br)cc(Br)c(C)c32)cc(C)c1O [10722/H07] | 2.3%
Cc1c(Br)cc(Br)c2c1C(=Cc1ccc(Cl)s1)C(=O)N2 [10721/H07] | −7.0%
Cc1c(Br)cc(Br)c2c1C(=Cc1cc(C(C)(C)C)cc(C(C)(C)C)c1O)C(=O)N2 [10723/H11] | −5.1%
Cc1c(Br)cc(Br)c2c1C(=Cc1ccc(O)c(O)c1O)C(=O)N2 [10723/H02] | 9.0%
CCOc1ccccc1C=C1C(=O)Nc2c(Br)cc(Br)c(C)c21 [10717/H02] | 4.0%
Cc1cccc(C=C2C(=O)Nc3ccc(CCCl)cc32)c1 [10736/G04] | 13.0%
COc1cc(O)c(C=C2C(=O)Nc3c(Br)cc(Br)c(C)c32)c(OC)c1 [10724/H08] | 13.1%

SMILES | Flk Kinase % Inhibition (P.110)
Cc1c(Br)cc(Br)c2c1C(=Cc1csc([N+](=O)[O-])c1)C(=O)N2 [10722/H09] | 3.3%
CCOC(=O)c1[nH]c(C=C2C(=O)Nc3c(Br)cc(Br)c(C)c32)c(C(=O)OC)c1C [10726/H03] | 0.4%
Cc1c(Br)cc(Br)c2c1C(=Cc1cc3c4c(c1O)CCCN4CCC3)C(=O)N2 [10724/H05] | −0.4%
COc1ccc(Br)c(C=C2C(=O)Nc3c(Br)cc(Br)c(C)c32)c1O [10725/H03] | −5.8%
Cc1c(Br)cc(Br)c2c1C(=Cc1ccc(N3CCOCC3)cc1)C(=O)N2 [10725/H08] | 17.2%
Cc1c(Br)cc(Br)c2c1C(=Cc1cc3ccccc3o1)C(=O)N2 [10724/H07] | 1.1%
Cc1c(Br)cc(Br)c2c1C(=Cc1ccc(N3CCN(C=O)CC3)cc1)C(=O)N2 [10725/H07] | 8.6%
COc1ccc(O)c(C=C2C(=O)Nc3c(Br)cc(Br)c(C)c32)c1 [10720/H10] | −22.8%
COc1cccc(C=C2C(=O)Nc3c(Br)cc(Br)c(C)c32)c1O [10723/H03] | 6.1%
Cc1c(Br)cc(Br)c2c1C(=Cc1cc(C(C)C)c(O)c(C(C)C)c1)C(=O)N2 [10724/H06] | −5.1%
Cc1c(Br)cc(Br)c2c1C(=Cc1cc([N+](=O)[O-])c(O)c(C(C)(C)C)c1)C(=O)N2 [10722/H02] | 4.2%
Cc1c(Br)cc(Br)c2c1C(=Cc1ccc(O)c([N+](=O)[O-])c1)C(=O)N2 [10724/H03] | 1.8%
Cc1cc(O)cc(O)c1C=C1C(=O)Nc2c(Br)cc(Br)c(C)c21 [10720/H08] | −23.7%
CCCCN(CCCC)c1ccc(C=C2C(=O)Nc3c(Br)cc(Br)c(C)c32)cc1 [10722/H10] | −14.1%
COc1cccc(C=C2C(=O)Nc3ccc(S(=O)(=O)N4CCOCC4)cc32)c1 [10736/F10] | 7.7%
Cc1ccc(C=C2C(=O)Nc3c(Br)cc(Br)c(C)c32)o1 [10725/H04] | −5.1%
Cc1c(Br)cc(Br)c2c1C(=Cc1cc([N+](=O)[O-])cc(CCl)c1O)C(=O)N2 [10721/H06] | −7.9%
Cc1c(Br)cc(Br)c2c1C(=Cc1cc3c([nH]1)CCCC3)C(=O)N2 [10721/H05] | −8.4%
Cc1cc(C)c(C=C2C(=O)Nc3c(Br)cc(Br)c(C)c32)[nH]1 [10721/H08] | −6.8%
Cc1c(Br)cc(Br)c2c1C(=Cc1cc(C(C)(C)C)c(O)c(C(C)(C)C)c1)C(=O)N2 [10721/H11] | −6.0%
Cc1c(Br)cc(Br)c2c1C(=Cc1nn(C)cc1Cl)C(=O)N2 [10721/H03] | 7.8%
CCOc1cc(C=C2C(=O)Nc3c(Br)cc(Br)c(C)c32)ccc1O [10720/H09] | −4.5%
COc1cc(C)cc(O)c1C=C1C(=O)Nc2c(Br)cc(Br)c(C)c21 [10725/H06] | 16.1%

SMILES | Flk Kinase % Inhibition (P.110)
Cc1c(Br)cc(Br)c2c1C(=Cc1cccn1C)C(=O)N2 [10717/H04] | 0.4%
Cc1c(Br)cc(Br)c2c1C(=Cc1ccc(C(F)(F)F)cc1)C(=O)N2 [10722/H11] | −3.3%
Cc1cc(C=C2C(=O)Nc3c(Br)cc(Br)c(C)c32)ccc1O [10723/H06] | 10.6%
Cc1c(Br)cc(Br)c2c1C(=Cc1ccccc1)C(=O)N2 [10720/H06] | 22.3%
Cc1c(Br)cc(Br)c2c1C(=Cc1sccc1Br)C(=O)N2 [10725/H02] | −7.6%
CCc1ccc(C=C2C(=O)Nc3c(Br)cc(Br)c(C)c32)o1 [10724/H10] | 5.8%
Cc1c(Br)cc(Br)c2c1C(=Cc1ccccc1[N+](=O)[O-])C(=O)N2 [10726/H02] | −8.5%
O=C1Nc2ccc(CCCl)cc2C1=Cc1ccccc1C(F)(F)F [10736/G03] | 4.5%
O=C1Nc2ccc(CCCl)cc2C1=Cc1ccc(Cl)cc1 [10736/G02] | −7.2%
Cc1c(Br)cc(Br)c2c1C(=Cc1cc(Cl)c(O)c(C(C)(C)C)c1)C(=O)N2 [10722/H08] | −20.3%
Cc1c(Br)cc(Br)c2c1C(=Cc1c[nH]cn1)C(=O)N2 [10725/H11] | −40.8%
Cc1c(Br)cc(Br)c2c1C(=Cc1ccc([N+](=O)[O-])s1)C(=O)N2 [10722/H04] | 3.8%
O=C1Nc2ccc(S(=O)(=O)N3CCOCC3)cc2C1=Cc1ccccc1Cl [10736/F11] | 3.7%
Cc1c(Br)cc(Br)c2c1C(=Cc1c(Br)cnn1-c1ccc(Cl)cc1)C(=O)N2 [10725/H10] | 7.8%
Cc1c(Br)cc(Br)c2c1C(=Cc1cccs1)C(=O)N2 [10717/H03] | 8.6%
COc1ccc(C=C2C(=O)Nc3c(Br)cc(Br)c(C)c32)c(O)c1 [10723/H09] | −0.4%
Cc1c(Br)cc(Br)c2c1C(=Cc1cccn1-c1ccc(Cl)cc1)C(=O)N2 [10724/H09] | 1.3%
CC(=O)Oc1ccc(C=C2C(=O)Nc3c(Br)cc(Br)c(C)c32)cc1OC(C)=O [10723/H05] | −2.5%
CSc1ccc(C=C2C(=O)Nc3c(Br)cc(Br)c(C)c32)s1 [10720/H07] | −2.9%
Cc1cc(C=C2C(=O)Nc3c(Br)cc(Br)c(C)c32)cc(C(C)(C)C)c1O [10726/H04] | 2.5%
Cc1c(Br)cc(Br)c2c1C(=Cc1ccccc1Br)C(=O)N2 [10723/H07] | 5.0%
Cc1c(Br)cc(Br)c2c1C(=Cc1ccc(C(=O)O)cc1)C(=O)N2 [10722/H05] | 4.3%

same assay, conditions: protocol P.110

SMILES | Flk Kinase % Inhibition (P.110)
Cc1c(Br)cc(Br)c2c1C(=Cc1cccc(Cl)c1)C(=O)N2 [10736/H06] | 15.5%
CCc1ccc(C=C2C(=O)Nc3ccc(CCCl)cc32)cc1 [10736/G09] | −2.1%
Cc1c(Br)cc(Br)c2c1C(=Cc1ccc(Cl)cc1)C(=O)N2 [10736/H02] | 6.1%
O=C1Nc2ccc(CCCl)cc2C1=Cc1ccccc1F [10736/G08] | −0.1%
Cc1ccc(C=C2C(=O)Nc3c(Br)cc(Br)c(C)c32)cc1 [10736/H05] | 16.3%
O=C1Nc2ccc(CCCl)cc2C1=Cc1cccc(F)c1 [10736/G07] | 9.4%
Cc1ccc(C=C2C(=O)Nc3ccc(CCCl)cc32)cc1 [10736/G05] | 2.3% and 5.9%
O=C1Nc2ccc(CCCl)cc2C1=Cc1ccccc1Cl [10736/G11] | 0.0%
Cc1cccc(C=C2C(=O)Nc3c(Br)cc(Br)c(C)c32)c1 [10736/H04] | 14.0%
COc1cccc(C=C2C(=O)Nc3ccc(CCCl)cc32)c1 [10736/G10] | 6.0%
Cc1c(Br)cc(Br)c2c1C(=Cc1ccccc1C(F)(F)F)C(=O)N2 [10736/H03] | 15.1%
